Assay results: patent US20040142948A1, “Sulfonamides” (priority 2003, published 2004)

Target: T1, HEK-293 cell membranes containing stable cloned human and rat GPR-14 (UniProt Q9UKP6)
T1 sequence (Q9UKP6 1-389): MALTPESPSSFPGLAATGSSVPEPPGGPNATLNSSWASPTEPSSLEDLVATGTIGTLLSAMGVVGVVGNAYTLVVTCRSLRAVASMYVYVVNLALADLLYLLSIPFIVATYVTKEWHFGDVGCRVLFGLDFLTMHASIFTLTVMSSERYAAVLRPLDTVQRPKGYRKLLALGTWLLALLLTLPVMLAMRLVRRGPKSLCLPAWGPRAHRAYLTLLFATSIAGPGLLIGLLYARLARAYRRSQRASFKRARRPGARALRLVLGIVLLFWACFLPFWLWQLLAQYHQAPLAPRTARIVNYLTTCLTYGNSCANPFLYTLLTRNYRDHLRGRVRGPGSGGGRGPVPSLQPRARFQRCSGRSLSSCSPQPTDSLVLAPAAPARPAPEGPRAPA
Assay: Radioligand binding ([125I] h-U-II)
Conditions: [125I] h-U-II 200 pM, species of GPR-14 (human or rat) not given
Method: HEK-293 cell membranes containing stable cloned human and rat GPR-14 (20 ug/assay) were incubated with 200 pM [125I] h-U-II (200 Ci/mmol^−1 in the presence of increasing concentrations of test compounds in DMSO (0.1 nM to 10 uM), in a final incubation volume of 200 ul (20 mM Tris-HCl, 5 mM MgCl2). Incubation was done for 30 minutes at room temperature followed by filtration GF/B filters with Brandel cell harvester. ^125I labeled U-II binding was quantitated by gamma counting. Nonspecific binding was defined by ^125I U-II binding in the presence of 100 nM of unlabeled human U-II. Analysis of the data was performed by nonlinear least square fitting.

- Ki: 230 nM
SMILES: CN1CC[C@@H](Oc2cc(NS(=O)(=O)c3cccc4nsnc34)ccc2Cl)C1 [Example 3, (R)-N-[4-Chloro-3-(1-methyl-3-pyr-rolidinyloxy)-phenyl]-ben-zo[1,2,5]thiadiazole-1-sulfonamide]
